According to patent US20200055839A1 (priority 2017, published 2020):

What follows are molecules tested on NL-RLuc virus (assay: Inhibition of HIV replication (NL-RLuc virus, luciferase readout in MT-2 cells)). Settings: Human immunodeficiency virus 1, MT2, 120 h, MT-2 cells infected with NL-RLuc virus, 5 days of incubation, 10% FBS, at least 2 experiments.
Assay type: cell-based
From the text: Inhibition of HIV Replication:
A recombinant NL-RLuc proviral clone was constructed in which a section of the nef gene form NL4-3 was replaced with the Renilla Luciferase gene. This virus is fully infectious and can undergo multiple cycles of replication in cell culture. In addition, the luciferous reporter provides a simple and easy method for quantitating the extent of virus growth and consequently, the antiviral activity of test compounds. The plasmid pNLRLuc contains the proviral NL-Rluc DNA cloned into pUC18 at the PvuII site. The NL-RLuc virus was prepared by transfection of 293T cells with the plasmid pNLRLuc. Transfections were performed using the LipofectAMINE PLUS kit form Invitrogen (Carlsbad, Calif.) according to the manufacturer and the virus generated was titered in MT-2 cells. For susceptibility analyses, the titrated virus was used to infect MT-2 cells in the presence of compound, and after 5 days of incubation, cells were processed and quantitated for virus growth by the amount of expressed luciferase. Assay media was RPMI 1640 supplemented with 10% heat inactivated fetal bovine serum (FBS), 100 units/ml penicillin G/100 units/ml streptomycin, 10 mM HEPES buffer pH 7.55 and 2 mM L-glutamine. The results form at least 2 experiments were used to calculate the EC50 values. Luciferase was quantitated using the Dual Luciferase kit form Promega (Madison, Wis.). Susceptibility of viruses to compounds was determined by incubation in the presence of serial dilutions of the compound. The 50% effective concentration (EC50) was calculated by using the exponential form of the median effect equation where (Fa)=1/[1+(ED50/drug conc.)^m](Johnson V A, Byington R T. Infectivity Assay. In Techniques in HIV Research. ed. Aldovini A, Walker B D. 71-76. New York: Stockton Press. 1990).

Going from `CCC(C)(C)O[C@H](C(=O)O)c1c(C)ncc(-c2ccc(OCCc3ccc(F)cc3)cc2)c1N1CCC(C)(C)CC1` [Example 18, (2S)-2-[4-(4,4-Dimethylpiperidin-1-yl)-5-{4-[2-(4-fluorophenyl)ethoxy]phenyl}-2-methylpyridin-3-yl]-2-[(2-methylbutan-2-yl)oxy]acetic acid] to `Cc1nc(NC2CCOCC2)c(-c2ccc(OCCc3ccc(F)cc3)cc2)c(N2CCC(C)(C)CC2)c1[C@H](OC(C)(C)C)C(=O)O` [Example 24, (S)-2-(tert-Butoxy)-2-(4-(4,4-dimethylpiperidin-1-yl)-5-(4-(4-fluorophenethoxy)phenyl)-2-methyl-6-((tetrahydro-2H-pyran-4-yl)amino)pyridin-3-yl)acetic acid], the EC50 falls from 4 nM to 2 nM (2-fold).

Going from `Cc1ncc(-c2ccc(OCc3ncnc4c3oc3ccccc34)cc2)c(N2CCC(C)(C)CC2)c1[C@H](OC(C)(C)C)C(=O)O` [Example 19, (2S)-2-(tert-Butoxy)-2-[4-(4,4-dimethylpiperidin-1-yl)-2-methyl-5-[4-({8-oxa-3,5-diazatricyclo[7.4.0.0^2,7]trideca-1(9), 2(7), 3,5,10,12-hexaen-6-yl}methoxy)phenyl]pyridin-3-yl]acetic acid] to `Cc1ncc(-c2ccc(CNc3ncnc4c3oc3ccccc34)cc2)c(N2CCC(C)(C)CC2)c1[C@H](OC(C)(C)C)C(=O)O` [Example 21, (2S)-2-(tert-Butoxy)-2-[4-(4,4-dimethylpiperidin-1-yl)-2-methyl-5-{4-[({8-oxa-3,5-diazatricyclo[7.4.0.0^2,7]trideca-1(9), 2(7), 3,5,10, 12-hexaen-6-yl}amino)methyl]phenyl}pyridin-3-yl]acetic acid], the EC50 falls from 4 nM to 2 nM (2-fold). The second is the more potent here.

Going from `Cc1ncc(-c2ccc(CN(C)c3ncnc4c3oc3ccccc34)cc2)c(N2CCC(C)(C)CC2)c1[C@H](OC(C)(C)C)C(=O)O` [Example 20, (2S)-2-(tert-Butoxy)-2-[4-(4,4-dimethylpiperidin-1-yl)-2-methyl-5-(4-{[methyl({8-oxa-3,5-diazatricyclo[7.4.0.0^2,7]trideca-1(9),2(7),3,5,10,12-hexaen-6-yl})amino]methyl}phenyl)pyridin-3-yl]acetic acid] to `Cc1nc(C#N)c(-c2ccc(CN(C)c3ncnc4c3oc3ccccc34)cc2)c(N2CCC(C)(C)CC2)c1[C@H](OC(C)(C)C)C(=O)O` [Example 22, (2S)-2-(tert-Butoxy)-2-[6-cyano-4-(4,4-dimethylpiperidin-1-yl)-2-methyl-5-(4-{[methyl({8-oxa-3,5-diazatricyclo[7.4.0.0^2,7]trideca-1 (9), 2(7), 3,5,10, 12-hexaen-6-yl})amino]methyl}phenyl)pyridin-3-yl]acetic acid], the EC50 rises from 2 nM to 3 nM (1.5-fold).

First: Cc1nc(CNC(=O)OC(C)(C)C)c(-c2ccc(OCCc3ccc(F)cc3)cc2)c(N2CCC(C)(C)CC2)c1[C@H](OC(C)(C)C)C(=O)O [Example 23, (S)-2-(tert-Butoxy)-2-(6-(((tert-butoxycarbonyl)amino)methyl)-4-(4,4-dimethylpiperidin-1-yl)-5-(4-(4-fluorophenethoxy)phenyl)-2-methylpyridin-3-yl)acetic acid]
Second: Cc1nc(NCCN2CCOCC2)c(-c2ccc(OCCc3ccc(F)cc3)cc2)c(N2CCC(C)(C)CC2)c1[C@H](OC(C)(C)C)C(=O)O [Example 26, (S)-2-(tert-Butoxy)-2-(4-(4,4-dimethylpiperidin-1-yl)-5-(4-(4-fluorophenethoxy)phenyl)-2-methyl-6-((2-morpholinoethyl)amino)pyridin-3-yl)acetic acid]
The EC50 of the first is 4-fold higher: 2 nM for the first, 0.5 nM for the second.

For `Cc1nc(NC2CCN(C)CC2)c(-c2ccc(OCCc3ccc(F)cc3)cc2)c(N2CCC(C)(C)CC2)c1[C@H](OC(C)(C)C)C(=O)O` [Example 25, (S)-2-(tert-Butoxy)-2-(4-(4,4-dimethylpiperidin-1-yl)-5-(4-(4-fluorophenethoxy)phenyl)-2-methyl-6-((1-methylpiperidin-4-yl)amino)pyridin-3-yl)acetic acid], the EC50 was 0.8 nM.
